Experiments:
Test in all cases: IA-DTB cysteine engagement
Type in all cases: binding
Settings in all cases: 22Rv1 cells, 20 μM probe, 1 h, relative to DMSO
DCTN4_C258 = biological target: T1, DCTN4_C258 (Homo sapiens, UniProt Q9UJW0)
T1 construct: endogenous in cells; host or cells: 22Rv1
How it was run: (§1)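 In-situ probe treatment of cells; lysate 2 mg/mL, IA-DTB 1 h RT; MeOH/CHCl3 precipitation, DTT/iodoacetamide, trypsin; streptavidin enrichment; TMT labeling, high-pH fractionation. Ratio = TMT reporter intensity / mean DMSO channels, median-normalized.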

DCUN1D4_C219 = biological target: T2, DCUN1D4_C219 (Homo sapiens, UniProt Q92564)
T2 construct: endogenous in cells; host or cells: 22Rv1
T2 sequence (Q92564 1-292): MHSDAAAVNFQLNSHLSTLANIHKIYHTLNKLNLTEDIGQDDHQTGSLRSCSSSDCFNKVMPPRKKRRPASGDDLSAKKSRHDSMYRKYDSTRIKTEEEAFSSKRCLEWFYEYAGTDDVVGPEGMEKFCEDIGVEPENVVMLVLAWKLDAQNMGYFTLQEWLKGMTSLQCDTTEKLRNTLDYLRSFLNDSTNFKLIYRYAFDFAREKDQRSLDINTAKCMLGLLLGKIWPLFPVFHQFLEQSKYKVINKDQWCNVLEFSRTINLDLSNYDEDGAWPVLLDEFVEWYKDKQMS
How it was run: as §1

GPAT3_C306 = biological target: T3, GPAT3_C306 (Homo sapiens, UniProt Q53EU6)
T3 construct: endogenous in cells; host or cells: 22Rv1
T3 sequence (Q53EU6 1-434): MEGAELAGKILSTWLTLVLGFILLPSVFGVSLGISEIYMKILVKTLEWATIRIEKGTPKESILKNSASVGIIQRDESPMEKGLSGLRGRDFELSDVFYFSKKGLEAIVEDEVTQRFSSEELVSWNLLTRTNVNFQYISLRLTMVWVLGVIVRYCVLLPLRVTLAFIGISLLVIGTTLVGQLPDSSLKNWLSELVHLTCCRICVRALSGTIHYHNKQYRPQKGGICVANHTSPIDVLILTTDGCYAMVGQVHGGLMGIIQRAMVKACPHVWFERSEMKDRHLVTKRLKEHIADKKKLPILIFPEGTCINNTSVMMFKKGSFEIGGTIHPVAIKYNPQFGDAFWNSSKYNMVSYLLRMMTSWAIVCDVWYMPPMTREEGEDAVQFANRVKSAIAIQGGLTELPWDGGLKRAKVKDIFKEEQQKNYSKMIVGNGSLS
How it was run: as §1

HMOX2_C265 = biological target: T4, HMOX2_C265 (Homo sapiens, UniProt P30519)
T4 construct: endogenous in cells; host or cells: 22Rv1
T4 sequence (P30519 1-316): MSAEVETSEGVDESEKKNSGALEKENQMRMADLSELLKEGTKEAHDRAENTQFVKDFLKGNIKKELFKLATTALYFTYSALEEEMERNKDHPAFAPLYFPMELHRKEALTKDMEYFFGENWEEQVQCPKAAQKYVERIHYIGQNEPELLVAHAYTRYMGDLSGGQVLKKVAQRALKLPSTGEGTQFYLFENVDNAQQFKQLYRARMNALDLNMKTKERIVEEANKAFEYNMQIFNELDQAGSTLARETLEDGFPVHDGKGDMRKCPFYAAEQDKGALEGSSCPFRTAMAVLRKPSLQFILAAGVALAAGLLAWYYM
How it was run: as §1

T1 sequence (Q9UJW0 whole entry): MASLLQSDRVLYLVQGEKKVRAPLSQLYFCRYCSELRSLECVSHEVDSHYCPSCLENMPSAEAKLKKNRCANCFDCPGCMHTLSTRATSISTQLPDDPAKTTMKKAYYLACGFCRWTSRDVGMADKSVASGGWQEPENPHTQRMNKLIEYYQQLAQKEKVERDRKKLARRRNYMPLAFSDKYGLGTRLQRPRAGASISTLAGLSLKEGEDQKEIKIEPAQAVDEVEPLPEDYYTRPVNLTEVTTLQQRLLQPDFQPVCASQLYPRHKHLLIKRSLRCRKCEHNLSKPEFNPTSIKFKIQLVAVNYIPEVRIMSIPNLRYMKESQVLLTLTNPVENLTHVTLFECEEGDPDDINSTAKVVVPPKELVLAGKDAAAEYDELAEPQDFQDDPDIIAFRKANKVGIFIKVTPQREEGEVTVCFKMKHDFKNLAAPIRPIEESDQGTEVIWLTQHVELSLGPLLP

% engagement DCTN4_C258 (DCTN4_C258) [%]	% engagement DCUN1D4_C219 (DCUN1D4_C219) [%]	% engagement GPAT3_C306 (GPAT3_C306) [%]	% engagement HMOX2_C265 (HMOX2_C265) [%]	SMILES
31.5	−17	100	79.5	C=CC(=O)N1C[C@H](c2ccc(Br)cc2)[C@H]1C(=O)Nc1cccc2cccnc12 [MY-3B, (2S,3S)-1-acryloyl-3-(4-bromophenyl)-N-(quinolin-8-yl)azetidine-2-carboxamide]
68	82.5	81.5	73.5	C=CC(=O)N1C[C@H](c2ccc(Br)cc2)[C@@H]1C(=O)Nc1cccc2cccnc12 [MY-1B, (2R,3S)-1-acryloyl-3-(4-bromophenyl)-N-(quinolin-8-yl)azetidine-2-carboxamide]
15.5	33.5	57	71.75	C=CC(=O)N1C[C@H](c2ccc(Br)cc2)[C@H]1C(=O)Nc1cccc2cccnc12 [MY-3A, (2S,3S)-1-acryloyl-3-(4-bromophenyl)-N-(quinolin-8-yl)azetidine-2-carboxamide]
27.5	45.5	75.75	72.5	C=CC(=O)N1C[C@@H](c2ccc(Br)cc2)[C@H]1C(=O)Nc1cccc2cccnc12 [MY-1A, (2S,3R)-1-acryloyl-3-(4-bromophenyl)-N-(quinolin-8-yl)azetidine-2-carboxamide]

Reference: patent US20250034216A1, “STEREOSELECTIVE COVALENT LIGANDS FOR ONCOGENIC AND IMMUNOLOGICAL PROTEINS” (The Scripps Research Institute, priority 2021, published 2025)
